In the supplement of paper PMC10307832:

Experiments:
Assay in all cases: relative viability (nuclei count vs DMSO), 5 days (fraction); higher = more cells survive
[1] = compound: C#Cc1cccc(Nc2ncnc3cc(OC)c(OCCCCCCC(=O)NO)cc23)c1 [CUDC-101] + C[C@@H](Oc1cc(-c2cnn(C3CCNCC3)c2)cnc1N)c1c(Cl)ccc(F)c1Cl [Crizotinib] (partner 1 µM)
Method in brief: (§1)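 Lung cancer cell lines in 1536-well plates were dosed by pin tool the day after seeding, either with one drug alone or with a fixed anchor-drug dose plus five library-drug doses (not always all listed) in √10 steps. After 5 days, cells were fixed and their nuclei stained in one step (final 0.05% Triton X-100, 1% formaldehyde, 1 ug/ml Hoechst), then counted on 4× images. Relative viability is the nuclei count in treated wells divided by that in vehicle wells. Values are medians of duplicate plates.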

[2] = compound: COc1cc(N2CCC(N3CCN(C)CC3)CC2)ccc1Nc1ncc(Cl)c(Nc2ccccc2S(=O)(=O)C(C)C)n1 [NVP-TAE684] + CS(=O)(=O)CCNCc1ccc(-c2ccc3ncnc(Nc4ccc(OCc5cccc(F)c5)c(Cl)c4)c3c2)o1 [Lapatinib] (partner 2 µM)
Method in brief: as §1

[3] = compound: C1=CC=C2C(=C1)N=C(S2)C(C#N)C3=NC(=NC=C3)NCCC4=CN=CC=C4 + CC(=O)c1c(C)c2cnc(Nc3ccc(N4CCNCC4)cn3)nc2n(C2CCCC2)c1=O [Palbociclib] (partner 0.5 µM)
Method in brief: as §1

[4] = compound: C#Cc1cccc(Nc2ncnc3cc(OC)c(OCCCCCCC(=O)NO)cc23)c1 [CUDC-101] + C[C@]1(O)C[C@@H](c2nc(-c3ccc4ccc(-c5ccccc5)nc4c3)c3c(N)nccn32)C1 [Linsitinib] (partner 1 µM)
Method in brief: as §1

Row | Cell Line | relative viability ([1]; first compound 0.01 µM) | relative viability ([1]; first compound 0.03162 µM) | relative viability ([1]; first compound 0.1 µM) | relative viability ([1]; first compound 0.3162 µM) | relative viability ([1]; first compound 1 µM) | relative viability ([2]; first compound 0.2 µM) | relative viability ([2]; first compound 0.6325 µM) | relative viability ([2]; first compound 2 µM) | relative viability ([3]; first compound 0.005 µM) | relative viability ([3]; first compound 0.01581 µM) | relative viability ([3]; first compound 0.05 µM) | relative viability ([3]; first compound 0.1581 µM) | relative viability ([3]; first compound 0.5 µM) | relative viability ([4]; first compound 0.01 µM) | relative viability ([4]; first compound 0.03162 µM) | relative viability ([4]; first compound 0.1 µM) | relative viability ([4]; first compound 0.3162 µM) | relative viability ([4]; first compound 1 µM)
1 | NCI-H1734 | 0.778 | 0.699 | 0.566 | 0.583 | 0.397 | 1.26 | 0.983 | 0.698 | 0.303 | 0.313 | 0.307 | 0.355 | 0.33 | 0.948 | 0.796 | 0.858 | 0.961 | 0.704
2 | LOU-NH91 | 0.701 | 0.605 | 0.699 | 0.521 | 0.539 | 0.781 | 0.648 | 0.516 | 0.545 | 0.552 | 0.477 | 0.563 | 0.543 | 0.978 | 0.634 | 0.564 | 0.599 | 0.453
3 | NCI-H2405 | 0.809 | 0.788 | 0.843 | 0.924 | 0.765 | 1.26 | 0.815 | 0.55 | 0.462 | 0.572 | 0.543 | 0.533 | 0.461 | 1.03 | 0.702 | 0.981 | 1.14 | 0.851
4 | HCC-15 | 0.804 | 0.836 | 0.798 | 0.843 | 0.715 | 0.914 | 0.893 | 0.808 | 0.701 | 0.771 | 0.734 | 0.74 | 0.627 | 0.786 | 0.853 | 0.857 | 0.954 | 0.743
5 | HCC-44 | 0.661 | 0.712 | 0.752 | 0.779 | 0.748 | 1.23 | 1.03 | 0.979 | 0.957 | 0.958 | 0.964 | 0.967 | 0.835 | 0.549 | 0.617 | 0.678 | 0.675 | 0.555
6 | NCI-H1792 | 0.971 | 0.944 | 0.942 | 1.04 | 0.953 | 0.913 | 0.825 | 0.89 | 0.473 | 0.732 | 0.622 | 0.995 | 0.474 | 0.558 | 0.407 | 0.54 | 0.547 | 0.454
7 | NCI-H2347 | 0.749 | 0.68 | 0.714 | 0.673 | 0.721 | 1 | 0.903 | 0.955 | 0.455 | 0.45 | 0.484 | 0.447 | 0.444 | 1.09 | 0.91 | 0.963 | 1.05 | 0.98
8 | RERF-LC-KJ | 0.771 | 0.903 | 0.788 | 0.825 | 0.686 | 0.871 | 0.867 | 0.905 | 0.977 | 1.13 | 1.05 | 1.12 | 1.01 | 0.965 | 1.01 | 0.839 | 0.849 | 0.694
9 | NCI-H1666 | 0.91 | 0.969 | 1.15 | 1.09 | 0.791 | 0.588 | 0.447 | 0.283 | 0.64 | 0.654 | 0.632 | 0.631 | 0.657 | 0.747 | 0.741 | 0.759 | 0.84 | 0.519
10 | LC-2-ad | 0.454 | 0.482 | 0.432 | 0.436 | 0.343 | 0.988 | 0.921 | 0.455 | 0.365 | 0.526 | 0.473 | 0.509 | 0.399 | 0.86 | 0.846 | 0.882 | 0.802 | 0.472
11 | NCI-H2023 | 0.623 | 0.602 | 0.622 | 0.628 | 0.558 | 1.1 | 0.622 | 0.193 | 0.328 | 0.309 | 0.394 | 0.383 | 0.332 | 0.636 | 0.482 | 0.606 | 0.776 | 0.608
12 | SK-LU-1 | 1.13 | 1.03 | 0.795 | 0.77 | 0.579 | 0.98 | 0.873 | 0.486 | 0.412 | 0.399 | 0.31 | 0.41 | 0.395 | 1.17 | 0.942 | 1.08 | 0.868 | 0.773
13 | LCLC-97TM1 | 0.549 | 0.386 | 0.443 | 0.343 | 0.17 | 1.51 | 0.547 | 0.287 | 0.236 | 0.265 | 0.235 | 0.251 | 0.19 | 0.211 | 0.158 | 0.201 | 0.166 | 0.151
14 | NCI-H1915 | 0.982 | 0.941 | 0.889 | 0.837 | 0.627 | 1.02 | 1.01 | 0.948 |  | 0.532 | 0.498 | 0.569 | 0.523 | 1.1 | 1.16 | 1.07 | 1.11 | 1
15 | NCI-H358 | 0.558 | 0.581 | 0.435 | 0.497 | 0.236 | 0.397 | 0.328 | 0.256 | 0.135 | 0.139 | 0.15 | 0.141 | 0.119 | 0.849 | 0.71 | 0.793 | 0.646 | 0.323
16 | LK-2 | 0.249 | 0.229 | 0.21 | 0.246 | 0.225 | 1.01 | 0.721 | 0.69 | 0.619 | 0.914 | 0.555 | 0.801 | 0.715 | 0.464 | 0.561 | 0.614 | 0.472 | 0.25
